The source of these data is patent US11820804B2, “Peptide-based inhibitors of growth hormone action and methods of use thereof” (Ohio University, priority 2018, dated 2023).

Holding throughout (assay type): cell-based
For assay [1], the system named is hGH mediated STAT5 phosphorylation in IM9 human lymphoblast cells. In words: Western blot of hGH mediated STAT5 phosphorylation in IM9 cells. The settings on record: co-treated with 2.5 nM recombinant hGH, peptide at 25 and 250 nM, 20 minutes. Here is the method:
(§1) Human malignant melanoma cell lines—SK-MEL-28, SK-MEL-30, human lymphoblast IM9 cells, mouse fibroblast L cells were obtained from American Type Culture Collection (ATCC; Manassas, Va.). SK-MEL-28 were grown and maintained in EMEM media (ATCC), while IM9 and L cells were grown in RPMI-1640 (ATCC) and DMEM (ATCC) respectively, as indicated by ATCC protocols. Complete growth media was supplemented with 10% fetal bovine serum (FBS; ATCC) and 1×antibiotic-antimycotic (Thermo Fisher Scientific, Waltham, Mass.). Cells were grown at 37° C./5% CO2 in a humidified incubator. Media was replaced every 48 hours. No hGH was present in the media or added externally unless specifically mentioned. For hGH treatment of adherent cells, 12-16 hours after seeding the cells were serum-starved for 4 hours in serum free growth media and hGH (or PBS as control) was added at the mentioned concentrations (50 ng/mL=2.5 nM or other concentrations). […]
(§2) Western blotting was performed following established lab procedures. […] Membranes were then washed and treated with West Femto Chemiluminiscence® detection reagents (Thermo Fisher Scientific) and the chemiluminiscence signal was captured using a GelDoc® (Biorad) fluorescence reader. Densitometry analysis of the blots was done by measured band-intensity from the area-under-curve using ImageJ® software. […]

For assay [2], the system named is tyrosine pSTAT5 levels following hGH stimulation. Nature of the assay: tyrosine pSTAT5 levels following hGH stimulation (cells not named at the place). The settings on record: general statement, cell line not named.
From the text: A hallmark of hGH action is rapid tyrosine phosphorylation of the STAT5(A and B) transcription factor protein following binding of hGH to hGHR and transactivation of hGHR associated JAK2. The phosphorylation event is rapid (minutes following hGH addition) and has been used as a readout of hGHR activation. Inhibitors of hGH action blocks hGH-hGHR mediated STAT5 tyrosine phosphorylation in many cells, including IM9, SK-MEL-28, mouse fibroblasts, and other cells which express hGHR.
as §1, with “mentioned.” for “mentioned. For hGH treatment of adherent cells, 12-16 hours after seeding the cells were serum-starved for 4 hours in serum free growth media and hGH (or PBS as control) was added at the mentioned concentrations (50 ng/mL=2.5 nM or other concentrations).”

In assay [3] the test system is hGH mediated STAT5 phosphorylation in L mouse fibroblasts cells. In words: Western blot of hGH mediated STAT5 phosphorylation in L cells. The settings on record: L mouse fibroblast cells, co-treated with 2.5 nM recombinant hGH, peptide at 25 and 250 nM, 20 minutes. Here is the method: as §1, §2
In assay [4] the test system is hGH mediated STAT5 phosphorylation in SK-MEL-28 human melanoma cells. Nature of the assay: Western blot of hGH mediated STAT5 phosphorylation in SK-MEL-28 cells. The settings on record: co-treated with 2.5 nM recombinant hGH, peptide at 25 and 250 nM, 20 minutes. How it is done:
as §1, §2

For “Tyr Ile Pro Lys Glu Gln Lys Tyr Ser Phe Leu Gln Asn Pro Gln Thr (YIPKEQKYSFLQNPQT; listed as Homo sapiens) [S1H, 16-amino acid peptide mimicking hGH site 1 helix, residues 36-51]”, the “hGH mediated STAT5 phosphorylation (phospho-STAT5 levels)” value in assay [1] and in assay [3] was “downregulates hGH mediated STAT5 phosphorylation” each time. For the same substance, in assay [2], the “tyrosine pSTAT5 levels following hGH stimulation” value was “robustly blocks tyrosine pSTAT5 levels following hGH stimulation, in a dose-dependent manner”. In addition, in assay [4], the “hGH mediated STAT5 phosphorylation (pSTAT5 levels)” value is given as “downregulates hGH mediated STAT5 phosphorylation”.
